Among the test systems are UACC-257 melanoma; ACHN renal; M14 melanoma; IGROV1 ovarian; SK-OV-3 ovarian; NCI-H226 lung; HOP-92 NSCLC; SK-MEL-28 melanoma; A549 NSCLC; SF-539 CNS.
Holding throughout (test): growth of human tumour cells (NCI), 48 h

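96-well plates; 48 h exposure; 5 concentrations. Endpoints by linear interpolation between flanking doses. Not reached: highest tested concentration assigned. The concentration for 50% growth inhibition is given as GI50. TGI marks complete inhibition of growth.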 Where only a bound is given, the exact number is not on record here.

For `CSC(CC(=O)O)C(=O)O` (stereo not given), the TGI in the experiment with UACC-257 melanoma, in the experiment on ACHN renal, with M14 melanoma, with IGROV1 ovarian, with SK-OV-3 ovarian and in the experiment on NCI-H226 lung was over 100 µM in each case. Moreover, the TGI in the experiment with HOP-92 NSCLC, with SK-MEL-28 melanoma, in the experiment on A549 NSCLC and with SF-539 CNS was over 100 µM throughout.
Turning to `O=C1C(c2c[nH]c3ccccc23)=C(c2c[nH]c3ccccc23)C(=O)N1O`, the GI50 with UACC-257 melanoma, in the experiment with ACHN renal, in the experiment with M14 melanoma, with IGROV1 ovarian, in the experiment on SK-OV-3 ovarian and with NCI-H226 lung was over 25 µM in each case. The GI50 in the experiment with HOP-92 NSCLC was 2.89 µM; with SK-MEL-28 melanoma, over 25 µM; in the experiment on A549 NSCLC it was over 25 µM; in the experiment with SF-539 CNS, over 25 µM. For the same compound, the TGI with UACC-257 melanoma, in the experiment with ACHN renal, in the experiment with M14 melanoma, in the experiment on IGROV1 ovarian, in the experiment with SK-OV-3 ovarian and with NCI-H226 lung was over 25 µM in each case. The TGI was 21.7 µM in the experiment on HOP-92 NSCLC, over 25 µM with SK-MEL-28 melanoma, over 25 µM with A549 NSCLC and over 25 µM in the experiment with SF-539 CNS.
On to `COc1ccc(-c2oc3c(OC)c(OC)c(OC)c(O)c3c(=O)c2OC)cc1OC`, for which the TGI is over 100 µM in the experiment on UACC-257 melanoma; over 100 µM with ACHN renal; over 100 µM in the experiment with M14 melanoma; 23.2 µM in the experiment on IGROV1 ovarian; 63.8 µM in the experiment with SK-OV-3 ovarian; over 88.7 µM in the experiment with NCI-H226 lung. Also, the TGI in the experiment on HOP-92 NSCLC is 18.4 µM; with SK-MEL-28 melanoma, over 100 µM; with A549 NSCLC it was over 100 µM; with SF-539 CNS it was over 71.4 µM.
With `CCc1n(Cc2ccc3ccccc3n2)cc[n+]1Cc1ccc2ccccc2n1`, the GI50 was 0.0796 µM with UACC-257 melanoma; 28 µM with ACHN renal; 2.93 µM in the experiment with M14 melanoma; 0.214 µM in the experiment with IGROV1 ovarian; 1.39 µM with SK-OV-3 ovarian; 2.56 µM with NCI-H226 lung. Further, the GI50 with HOP-92 NSCLC was 0.0183 µM; in the experiment with SK-MEL-28 melanoma it was 0.196 µM; in the experiment on A549 NSCLC, 5.27 µM; in the experiment on SF-539 CNS, 0.681 µM. Moreover, the TGI was 0.695 µM with UACC-257 melanoma; over 100 µM in the experiment with ACHN renal; 21.7 µM in the experiment with M14 melanoma; 16.7 µM in the experiment on IGROV1 ovarian; 15.1 µM with SK-OV-3 ovarian; 30.8 µM in the experiment on NCI-H226 lung. For the same compound, the TGI in the experiment on HOP-92 NSCLC was 0.521 µM; with SK-MEL-28 melanoma, 14.7 µM; in the experiment with A549 NSCLC, over 100 µM; in the experiment on SF-539 CNS, 15.8 µM.
Consider `Cc1ccc(-c2cc(-c3ccco3)c(C#N)c(=O)[nH]2)cc1`, for which the TGI in the experiment with UACC-257 melanoma was over 100 µM; with ACHN renal, over 100 µM; with M14 melanoma, over 100 µM; in the experiment on IGROV1 ovarian, over 100 µM; with SK-OV-3 ovarian it was 97.6 µM; with NCI-H226 lung, over 100 µM. The TGI in the experiment on HOP-92 NSCLC, with SK-MEL-28 melanoma, in the experiment with A549 NSCLC and with SF-539 CNS was over 100 µM each time.
For the compound `C1C[OH+]CC[OH+]CCNCC[OH+]CC[OH+]CCN1.[Cl-].[Pt+4]`, the GI50 with UACC-257 melanoma, in the experiment with ACHN renal, in the experiment on M14 melanoma, in the experiment on IGROV1 ovarian, in the experiment with SK-OV-3 ovarian and with NCI-H226 lung was over 100 µM throughout. The GI50 in the experiment on HOP-92 NSCLC, in the experiment on SK-MEL-28 melanoma, in the experiment on A549 NSCLC and with SF-539 CNS was over 100 µM each time. For the same compound, the TGI in the experiment with UACC-257 melanoma, in the experiment on ACHN renal, with M14 melanoma, with IGROV1 ovarian, in the experiment with SK-OV-3 ovarian and in the experiment on NCI-H226 lung was over 100 µM in each case. Besides, the TGI in the experiment with HOP-92 NSCLC, in the experiment on SK-MEL-28 melanoma, in the experiment with A549 NSCLC and in the experiment on SF-539 CNS was over 100 µM in each case.
Consider `C=C1SC(=Nc2c(C)cc(C)cc2C)N(C(=O)c2sc3ccccc3c2Cl)C12CCCCC2`, for which the GI50 in the experiment with UACC-257 melanoma, in the experiment with ACHN renal, in the experiment with M14 melanoma, in the experiment with IGROV1 ovarian, in the experiment with SK-OV-3 ovarian and in the experiment on NCI-H226 lung was over 100 µM in each case. Moreover, the GI50 in the experiment on HOP-92 NSCLC was 39.1 µM; in the experiment on SK-MEL-28 melanoma, over 100 µM; with A549 NSCLC, over 100 µM; in the experiment with SF-539 CNS, over 100 µM. In addition, the TGI in the experiment on UACC-257 melanoma, with ACHN renal, in the experiment on M14 melanoma, in the experiment on IGROV1 ovarian, in the experiment with SK-OV-3 ovarian and with NCI-H226 lung was over 100 µM each time. In addition, the TGI with HOP-92 NSCLC, in the experiment on SK-MEL-28 melanoma, with A549 NSCLC and in the experiment on SF-539 CNS was over 100 µM in each case.
For the compound `COc1ccc(C2SCC(=O)N2NC(=O)C(O)c2ccccc2)cc1OC` (stereo not given), the GI50 in the experiment with UACC-257 melanoma, in the experiment with ACHN renal, in the experiment on M14 melanoma, in the experiment on IGROV1 ovarian, with SK-OV-3 ovarian and in the experiment on NCI-H226 lung was over 100 µM in each case. Also, the GI50 in the experiment with HOP-92 NSCLC, in the experiment with SK-MEL-28 melanoma, in the experiment with A549 NSCLC and in the experiment with SF-539 CNS was over 100 µM in each case. The TGI in the experiment on UACC-257 melanoma, in the experiment with ACHN renal, in the experiment on M14 melanoma, in the experiment with IGROV1 ovarian, in the experiment with SK-OV-3 ovarian and in the experiment with NCI-H226 lung was over 100 µM each time. Besides, the TGI in the experiment with HOP-92 NSCLC, in the experiment with SK-MEL-28 melanoma, in the experiment with A549 NSCLC and in the experiment on SF-539 CNS was over 100 µM in each case.

The record behind these values is PubChem BioAssay (NCI).
